Results from patent publication US20140255392A1 (BAYER INTELLECTUAL PROPERTY GMBH, priority 2011, published 2014).

Target: T1, human kinase Mps-1 (Homo sapiens, UniProt P33981)
T1 construct: N-terminally GST-tagged human full length recombinant Mps-1 kinase; GST (N); purchased Invitrogen, Karslruhe, Germany PV4071
T1 sequence (P33981 1-857): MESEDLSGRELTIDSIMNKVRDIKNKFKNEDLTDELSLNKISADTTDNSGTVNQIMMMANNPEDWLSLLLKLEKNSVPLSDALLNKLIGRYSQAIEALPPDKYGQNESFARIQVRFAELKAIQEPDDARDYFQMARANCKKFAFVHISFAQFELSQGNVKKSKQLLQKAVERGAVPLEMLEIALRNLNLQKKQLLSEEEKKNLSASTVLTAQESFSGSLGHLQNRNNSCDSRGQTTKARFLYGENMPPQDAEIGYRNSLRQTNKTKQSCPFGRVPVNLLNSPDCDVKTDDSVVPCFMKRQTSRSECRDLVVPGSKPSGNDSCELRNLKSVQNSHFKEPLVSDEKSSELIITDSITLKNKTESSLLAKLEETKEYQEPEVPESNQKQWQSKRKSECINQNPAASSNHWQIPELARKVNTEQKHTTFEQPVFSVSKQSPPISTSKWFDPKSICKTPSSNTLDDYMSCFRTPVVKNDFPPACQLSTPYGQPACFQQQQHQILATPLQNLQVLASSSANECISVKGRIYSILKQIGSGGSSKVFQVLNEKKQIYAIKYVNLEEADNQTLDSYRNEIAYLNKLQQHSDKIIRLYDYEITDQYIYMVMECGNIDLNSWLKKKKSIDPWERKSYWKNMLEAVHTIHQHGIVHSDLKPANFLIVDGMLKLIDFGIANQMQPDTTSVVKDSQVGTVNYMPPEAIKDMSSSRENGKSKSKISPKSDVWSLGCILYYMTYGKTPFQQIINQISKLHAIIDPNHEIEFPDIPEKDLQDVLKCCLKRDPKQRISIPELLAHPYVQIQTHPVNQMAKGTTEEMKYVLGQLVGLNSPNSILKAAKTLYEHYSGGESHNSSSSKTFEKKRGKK
Test: Mps-1 kinase assay (TR-FRET)
Assay type: biochemical
Settings: N-terminally GST-tagged human full length recombinant Mps-1; 10 μM ATP; 1 μM peptide substrate; 60 min at 22° C.
Summary of the method: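 GST-tagged full-length recombinant Mps-1 at about 1 nM final, adjusted per lot for linear range, phosphorylated a biotinylated peptide. Product bound Eu-anti-phospho(Ser/Thr) antibody over 1 h at 22° C and was read by TR-FRET to streptavidin-XLent. Compounds scored for kinase inhibition.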

Row | Molecule | IC50 [nM]
1 | Cc1cc(-c2cnc3c(NCCC(F)(F)F)cc(Oc4ccccc4)cn23)ccc1C(=O)NC1(C#N)CC1 [Example 57, N-(1-cyanocyclopropyl)-2-methyl-4-{6-phenoxy-8-[(3,3,3-trifluoropropyl)amino]imidazo[1,2-a]pyridin-3-yl}benzamide] | 12.6
2 | Cc1cc(-c2cnc3c(NCCC(F)(F)F)cc(Oc4cccc(OC(F)(F)F)c4)cn23)ccc1C(=O)NC1CC1 [Example 74, N-cyclopropyl-2-methyl-4-{6-[3-(trifluoromethoxy)phenoxy]-8-[(3,3,3-trifluoropropyl)amino]imidazo[1,2-a]pyridin-3-yl}benzamide] | 6.8
3 | Cc1cc(-c2cnc3c(NCCC(F)(F)F)cc(CCO)cn23)ccc1C(=O)NC1CC1 [Example 141, N-cyclopropyl-4-{6-(2-hydroxyethyl)-8-[(3,3,3-trifluoropropyl)amino]imidazo[1,2-a]pyridin-3-yl}-2-methylbenzamide] | 26.2
4 | Cc1cc(-c2cnc3c(NCCC(F)(F)F)cc(Oc4cccc(F)c4)cn23)ccc1C(=O)NC1(C#N)CC1 [Example 13, N-(1-cyanocyclopropyl)-4-{6-(3-fluorophenoxy)-8-[(3,3,3-trifluoropropyl)amino]imidazo[1,2-a]pyridin-3-yl}-2-methylbenzamide] | 11.1
5 | COc1ccc(Oc2cc(NCC(F)F)c3ncc(-c4ccc(C(=O)NC5CC5)c(C)c4)n3c2)cc1 [Example 162, N-cyclopropyl-4-{8-[(2,2-difluoroethyl)amino]-6-(4-methoxyphenoxy)imidazo[1,2-a]pyridin-3-yl}-2-methylbenzamide] | 8.6
6 | Cc1cc(-c2cnc3c(NCCC(F)(F)F)cc(Oc4cncc(F)c4)cn23)ccc1C(=O)NC1CC1 [Example 177, N-cyclopropyl-4-{6-[(5-fluoropyridin-3-yl)oxy]-8-[(3,3,3-trifluoropropyl)amino]imidazo[1,2-a]pyridin-3-yl}-2-methylbenzamide] | 20.4
7 | Cc1cc(-c2cnc3c(NCC(F)F)cc(Oc4cccc(F)c4)cn23)ccc1C(=O)NC1CC1 [Example 161, N-cyclopropyl-4-{8-[(2,2-difluoroethyl)amino]-6-(3-fluorophenoxy)imidazo[1,2-a]pyridin-3-yl}-2-methylbenzamide] | 2.3
8 | Cc1cc(-c2cnc3c(NCCC(F)(F)F)cc(Sc4cccc(F)c4F)cn23)ccc1C(=O)NC1CC1 [Example 3-2, N-cyclopropyl-4-{6-[(2,3-difluorophenyl)sulfanyl]-8-[(3,3,3-trifluoropropyl)amino]imidazo[1,2-a]pyridin-3-yl}-2-methylbenzamide] | 0.3
9 | CCNC(=O)c1ccc(-c2cc(NCCC(F)(F)F)c3ncc(-c4ccc(C(=O)NC)c(C)c4)n3c2)cc1C [Example 159, 4-{6-[4-(ethylcarbamoyl)-3-methylphenyl]-8-[(3,3,3-trifluoropropyl)amino]imidazo[1,2-a]pyridin-3-yl}-N,2-dimethylbenzamide] | 9.1
10 | Cc1cc(-c2cnc3c(NCCC(F)(F)F)cc(Oc4ccc(OC(F)(F)F)cc4)cn23)ccc1C(=O)NC1CC1 [Example 64, N-cyclopropyl-2-methyl-4-{6-[4-(trifluoromethoxy)phenoxy]-8-[(3,3,3-trifluoropropyl)amino]imidazo[1,2-a]pyridin-3-yl}benzamide] | 8.6
11 | CNC(=O)c1ccc(-c2cnc3c(NCCC(F)(F)F)cc(Oc4cccc(OC(F)(F)F)c4)cn23)cc1C [Example 78, N,2-dimethyl-4-{6-[3-(trifluoromethoxy)phenoxy]-8-[(3,3,3-trifluoropropyl)amino]imidazo[1,2-a]pyridin-3-yl}benzamide] | 30.3
12 | CCNC(=O)c1ccc(-c2cnc3c(NCCC(F)(F)F)cc(Oc4cccc(F)c4F)cn23)cc1C [Example 73, 4-{6-(2,3-Difluorophenoxy)-8-[(3,3,3-trifluoropropyl)amino]imidazo[1,2-a]pyridin-3-yl}-N-ethyl-2-methylbenzamide] | 1.2
13 | Cc1cc(-c2cnc3c(NCCC(F)(F)F)cc(CCCO)cn23)ccc1C(=O)NC1CC1 [Example 128, N-cyclopropyl-4-{6-(3-hydroxypropyl)-8-[(3,3,3-trifluoropropyl)amino]imidazo[1,2-a]pyridin-3-yl}-2-methylbenzamide] | 9.5
14 | C=Cc1cc(NCCC(F)(F)F)c2ncc(-c3ccc(C(=O)NC4(C)CC4)c(C)c3)n2c1 [Example 95, 2-Methyl-N-(1-methylcyclopropyl)-4-{8-[(3,3,3-trifluoropropyl)amino]-6-vinylimidazo[1,2-a]pyridin-3-yl}benzamide] | 140
15 | C=Cc1cc(NCCC(F)(F)F)c2ncc(-c3ccc(C(=O)NC4CC4)c(C)c3)n2c1 [Example 92, N-cyclopropyl-2-methyl-4-{8-[(3,3,3-trifluoropropyl)amino]-6-vinylimidazo[1,2-a]pyridin-3-yl}benzamide] | 13.2
16 | Cc1cc(-c2cnc3c(NCCC(F)(F)F)cc(Oc4ccc(OC(F)(F)F)c(F)c4)cn23)ccc1C(=O)NC1CC1 [Example 83, N-cyclopropyl-4-{6-[3-fluoro-4-(trifluoromethoxy)phenoxy]-8-[(3,3,3-trifluoropropyl)amino]imidazo[1,2-a]pyridin-3-yl}-2-methylbenzamide] | 68.7
17 | CNC(=O)c1ccc(-c2cnc3c(NCCC(F)(F)F)cc(-c4ccc(C(=O)NC5CC5)c(C)c4)cn23)cc1C [Example 158, 4-{6-[4-(cyclopropylcarbamoyl)-3-methylphenyl]-8-[(3,3,3-trifluoropropyl)amino]imidazo[1,2-a]pyridin-3-yl}-N,2-dimethylbenzamide] | 6.2
18 | COCCNc1cc(Oc2cccc(F)c2)cn2c(-c3ccc(C(=O)NC4CC4)c(C)c3)cnc12 [Example 169, N-cyclopropyl-4-{6-(3-fluorophenoxy)-8-[(2-methoxyethyl)amino]imidazo[1,2-a]pyridin-3-yl}-2-methylbenzamide] | 21.7

Second part, the molecule after the results:

Row | IC50 [nM] | Molecule
19 | 3.8 | Cc1cc(-c2cnc3c(NCCC(F)(F)F)cc(Oc4cccc(F)c4F)cn23)ccc1C(=O)NC1(C#N)CC1 [Example 70, N-(1-cyanocyclopropyl)-4-{6-(2,3-difluorophenoxy)-8-[(3,3,3-trifluoropropyl)amino]imidazo[1,2-a]pyridin-3-yl}-2-methylbenzamide]
20 | 17.8 | Cc1cc(-c2cnc3c(NCCC(F)(F)F)cc(Oc4ccc(OCc5ccccc5)cc4)cn23)ccc1C(=O)NC1CC1 [Example 109, 4-{6-[4-(benzyloxy)phenoxy]-8-[(3,3,3-trifluoropropyl)amino]imidazo[1,2-a]pyridin-3-yl}-N-cyclopropyl-2-methylbenzamide]
21 | 279 | tert-butyl {3-[4-(cyclopropylcarbamoyl)-3-methylphenyl]-6-(2-hydroxybenzoyl)imidazo[1,2-a]pyridin-8-yl}(2,2-difluoroethyl)carbamate [Example 168]
22 | 5.8 | C/C=C/c1cc(NCCC(F)(F)F)c2ncc(-c3ccc(C(=O)NC4CC4)c(C)c3)n2c1 [Example 111, N-cyclopropyl-2-methyl-4-{6-[(1E)-prop-1-en-1-yl]-8-[(3,3,3-trifluoropropyl)amino]imidazo[1,2-a]pyridin-3-yl}benzamide]
23 | 0.5 | Cc1cc(-c2cnc3c(NCCC(F)(F)F)cc(Sc4ccccc4)cn23)ccc1C(=O)NC1CC1 [Example 3-3, N-cyclopropyl-2-methyl-4-{6-(phenylsulfanyl)-8-[(3,3,3-trifluoropropyl)amino]imidazo[1,2-a]pyridin-3-yl} benzamide]
24 | 123 | CCNC(=O)c1ccc(-c2cnc3c(NCCC(F)(F)F)cc(CC)cn23)cc1C [Example 101, N-ethyl-4-{6-ethyl-8-[(3,3,3-trifluoropropyl)amino]imidazo[1,2-a]pyridin-3-yl}-2-methylbenzamide]
25 | 2.6 | Cc1cc(-c2cnc3c(NCCC(F)(F)F)cc(-c4ccc(C(=O)NC5(CO)CC5)c(C)c4)cn23)ccc1C(=O)NC1CC1 [Example 151, 4-{3-[4-(cyclopropylcarbamoyl)-3-methylphenyl]-8-[(3,3,3-trifluoropropyl)amino]imidazo[1,2-a]pyridin-6-yl}-N-[1-(hydroxymethyl)cyclopropyl]-2-methylbenzamide]
26 | 0.7 | COc1ccc(Oc2cc(NCCC(F)(F)F)c3ncc(-c4ccc(C(=O)N[C@H]5C[C@@H]5F)c(C)c4)n3c2)cc1F (relative stereo) [Example 124, N-[rel-(1S,2S)-2-fluorocyclopropyl]-4-{6-(3-fluoro-4-methoxyphenoxy)-8-[(3,3,3-trifluoropropyl)amino]imidazo[1,2-a]pyridin-3-yl}-2-methylbenzamide]
